This is an account of results in PubChem BioAssay AID179 (DTP/NCI, 2004).

Values joined by “and” are separate entries in the source; they are usually repeats but may differ in a detail not shown here. Equal values may be shown once. Active and inactive are the calls of the source.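 How the source made its calls: active means compounds giving half or more protection of infected cells from virus-caused growth loss, again on retest; inactive means the rest.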 *1 amine or outer side, *2 acyl side, *3 side chain or, on linkers, in order; H or OH if unused. Where a SMILES comes first, the peptide text is derived from it. Bridges are numbered along the chain shown (N, C = ends). [ ]: non-standard residue; d: D form. The star is where a group is joined. ξ: configuration not given here. γ4hArg(2R,3R-(OH)2) = N=C(N)NCCC[C@H](N[*:1])[C@@H](O)[C@@H](O)C(=O)[*:2]; Gln(3S,4R-Me2) = C[C@H]([C@H](N)C(=O)O)[C@@H](C)C(N)=O; X5 = CC(C)C[C@H](C)[C@@H](O)[C@@H](C)C(=O)*; X6 = COC(c1ccc(O)cc1)C(N[*:1])C(=O)[*:2]; NMeQ = CN[C@@H](CCC(N)=O)C(=O)O; Thr(3ξ) = CC(O)[C@H](N)C(=O)O; NMeA = CN[C@@H](C)C(=O)O

The test has as its system CEM cells HIV-1 protection, formazan growth assay. As to the kind of experiment: NCI AIDS Antiviral Assay. The settings on record: for IC50: measured here: growth of uninfected CEM cells. In short, it runs like this:
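Protection of CEM cells against HIV-1 was scored from cell growth (soluble formazan) across five concentrations, with parallel uninfected cells. Lack of protection may reflect toxicity.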

With `CC(=O)O[C@H]1CC(C)(C)C(=C=C/C(C)=C/C=C/C=C/C=C(C)/C=C2C=C(/C=C/[C@@]34O[C@]3(C)C[C@@H](O)CC4(C)C)C(=O)O/2)[C@](C)(O)C1`, the EC50 is over 151 µM and the IC50 was 6.92 µM. On to `CCCCC[C@@H]1CCCC2C1CC[C@@H](CCCCCI)N2C(=O)OCC(Cl)(Cl)Cl` (stereo partly specified), for which the outcome was inactive. With `CCOC(=O)c1c(-c2ccc(OC)cc2)c(C#N)c(=S)n(C2OC(CO)C(O)C(O)C2O)c1C` (stereo unspecified), the EC50 was over 200 µM and the IC50 was over 200 µM.

For `CCOC#CCCOCc1ccccc1`, the EC50 was over 66.1 µM and the IC50 is over 66.1 µM. Regarding `N#Cc1c(N=Cc2ccccc2)c(C(=O)Nc2ccccc2)n2c1CCC2`, the EC50 is over 50.1 µM and the IC50 is over 50.1 µM.

`CN1C(=O)/C(=C2\SC(=O)N(CN3CCCCC3)C2=O)c2cc(Br)ccc21`: the EC50 is over 200 µM and the IC50 stood at 91.2 µM. In the case of `Cc1cc(-c2ccc(C(=O)C(c3ccccc3)(c3ccccc3)c3ccccc3)[nH]2)on1`, the EC50 is over 200 µM and the half-inhibitory concentration (IC50) came out at 18.6 µM.

Take `CC(C)(C)OC(=O)N1CCC2(CC1)C(=O)NCN2c1ccccc1`: the EC50 is over 200 µM and the IC50 is over 200 µM. As to `O=C(O)Cc1cccc2c(=O)c3cccc([N+](=O)[O-])c3oc12`, the EC50 is over 200 µM and the IC50 is over 200 µM. `COC(=O)c1c2c(cc3c1CC1(C3)Cc3cc4c(c(C(=O)OC)c3C1)CCC4)CCC2`: the EC50 is over 200 µM and the IC50 is over 200 µM.

On to `c1ccc2c3nnc(c2c1)SCCSCCSc1nnc(c2ccccc12)SCCSCCS3`, for which the EC50 is over 200 µM and the IC50 was over 200 µM.

`COC(=O)C1Cc2c([nH]c3ccccc23)C(c2ccccc2O)N1Cc1ccccc1` (stereo unspecified): the outcome was inactive. For `O=C(O)CC(=O)Nc1ccccc1S`, the EC50 is over 200 µM and the IC50 was over 200 µM. In the case of `O=C1Sc2cc3c(cc2C(=O)N2CCCC12)OCO3` (stereo unspecified), the EC50 is over 182 µM and the IC50 was determined as 129 µM. On the same counts, the results for `CC1(N)COP(=O)(NCc2ccccc2)OC1` (stereo unspecified) are over 676 µM and 589 µM. As to `O=C1NC(N2CCCC(CO)C2)=N/C1=C\c1ccc(O)cc1` (stereo unspecified), the EC50 was over 200 µM and the concentration for half-maximal inhibition (IC50) is 115 µM. Consider `N=S(=O)(c1ccccc1)c1ccccc1`, for which the outcome was inactive. Turning to `C/C(=N/c1[nH]c(=O)cc2c1C(=O)CC2)N(C)C`, the EC50 was over 200 µM and the half-maximal inhibitory concentration (IC50) was over 200 µM. Regarding `C/C=C/[C@@H]1[C@H]2C(=O)[C@]3(Cl)[C@@H](/C=C/C)[C@@H]3C(=O)[C@@]12Cl`, the outcome was inactive.

On to `c1csc(-c2csc(-c3ccsc3)c2)c1`, for which the EC50 is over 200 µM and the IC50 is over 200 µM.

In the case of `COc1ccc(CN2CCCN(Cc3ccc(OC)cc3)C2c2ccccc2O)cc1`, the EC50 was over 200 µM and the IC50 was 50.1 µM. Take `N#CC1(c2nc3ccccc3o2)C(=O)C(=O)N(C2C3CC4CC(C3)CC2C4)C(=O)C1=O` (stereo unspecified): the EC50 was over 107 µM and the IC50 was over 107 µM. As to `CC(C)C1C(=O)N(c2c(F)c(F)c(F)c(F)c2F)C(=S)N1CCS(=O)c1ccccc1` (stereo unspecified), the EC50 was over 200 µM and the IC50 was found to be 9.33 µM. Turning to `COC(=O)C1CCC(=O)N1CN(C(C)=O)c1ccccc1Cl` (stereo unspecified), the EC50 is over 200 µM and the IC50 was over 200 µM. Consider `Cc1cn([C@H]2C[C@](C)(CO)N(C)O2)c(=O)[nH]c1=O`, for which the EC50 was over 200 µM and the IC50 is over 200 µM. For the molecule `CC(=O)OCC1C(OC(C)=O)CC2CCC1N2C#N` (stereo unspecified), the EC50 is over 200 µM and the IC50 is over 200 µM.

Consider `COc1cc(-c2c(C(C)=O)c(-c3ccccc3)n(C3OC(COC(C)=O)C(OC(C)=O)C(OC(C)=O)C3OC(C)=O)c(=S)c2C#N)ccc1O` (stereo unspecified), for which the EC50 is over 200 µM; the IC50 is 74.1 µM and 45.7 µM.

For `COC(c1ccc(O)cc1)C1NC(=O)[C@H](CCC(N)=O)N(C)C(=O)[C@H](CC(C)C)NC(=O)[C@@H](CCCN=C(N)N)NC(=O)[C@H](C(C)O)NC(=O)[C@@H](NC(=O)[C@@H](NC(=O)[C@H](O)[C@H](O)[C@H](CCCN=C(N)N)NC(=O)[C@H](C)NC(=O)[C@H](C)[C@H](O)[C@@H](C)CC(C)C)[C@@H](C)[C@@H](C)C(N)=O)[C@@H](C)OC(=O)[C@H](C)N(C)C1=O` (stereo partly drawn) (X5-A[γ4hArg(2R,3R-(OH)2)][Gln(3S,4R-Me2)]T[Thr(3ξ)][dR]L[NMeQ][X6][NMeA]; ester 4-C), the EC50 was 0.0933 µM and the IC50 is 0.794 µM.

Regarding `CC(=O)NNc1nc(C)c(C(=O)/C=C/c2ccc(NC(C)=O)cc2)s1`, the EC50 is over 28.2 µM and the 50% inhibitory concentration (IC50) is over 28.2 µM. For the molecule `CCN1CN(c2ccccc2)C2(CCN(CCCSc3ccc(F)cc3)CC2)C1=O`, the EC50 was over 200 µM and the IC50 was found to be 10 µM. As for `C=CCCC1(O)C(O)C(CO)O[C@H](O[C@@]2(CO)OC(CO)C(O)C2O)C1O` (stereo partly specified), the outcome was inactive.

Regarding `COc1ccc(NC2C(=O)C3(C)CCC2C3(C)C)cc1` (stereo unspecified), the result was inactive. Turning to `CCC(O)(Cc1ccc(OC)cc1)c1ccc(OC)cc1` (stereo unspecified), the EC50 was over 200 µM and the half-maximal inhibitory concentration (IC50) came to 123 µM. As for `Cc1ccc(S(=O)(=O)O/N=C(/CC/C(=N\OS(=O)(=O)c2ccc(C)cc2)c2ccccc2)c2ccccc2)cc1`, the EC50 is over 437 µM and the IC50 is over 437 µM. On to `CCN(CC)CCNC(=O)C(O)(c1ccccc1)c1ccccc1`, for which the EC50 was over 200 µM and the IC50 was over 200 µM. With `O=C(c1c2c(cc3c1CC1(Cc4cc5c(cc4C1)CCCC5)C3)CCCC2)C(Br)Br`, the EC50 was over 100 µM and the IC50 was 4.9 µM.

On to `O=c1/c(=C/c2ccc3c(c2)OCO3)sc2nnc(-c3ccco3)n12`, for which the EC50 was over 55 µM and the IC50 was over 55 µM. For the molecule `O=C(/C=C/c1ccccc1Cl)NC1C=Nc2ccc([N+](=O)[O-])cc2NC1` (stereo unspecified), the EC50 is over 26.9 µM and the IC50 is over 26.9 µM. Regarding `CC(C)(C)[Si](C)(C)OC1C(CC#N)C(CO)OC1n1ccc(=O)[nH]c1=O` (stereo unspecified), the EC50 was over 200 µM and the IC50 is over 200 µM. On to `C=COCCCOc1ccccc1`, for which the EC50 is over 200 µM and the IC50 is over 200 µM. For the molecule `COc1cc(/C=C2\C(=O)N(c3ccccc3Cl)C(c3ccccc3)S2(=O)=O)cc(OC)c1OC` (stereo unspecified), the EC50 was over 200 µM and the IC50 is 85.1 µM. On the same counts, the results for `Cc1ccc2cc(NC(=O)CN)c3ccc(C)nc3c2n1.Cc1ccc2cc(NC(=O)CN)c3ccc(C)nc3c2n1.O=C1OC(C(O)C[O-])C(O)=C1O.[Cu+]` are over 12.6 µM and 0.562 µM. The like results for `CCOC(=O)C(C)(C)C(OP(=S)(OCC)OCC)=C(C)C` were, in that order, over 3.09 µM and over 3.09 µM. On the same counts, the results for `CN(NC(=O)/C(=C/c1ccc(O)cc1)NC(=O)c1ccccc1)c1ccnc2cc(Cl)ccc12` are over 200 µM and 10.2 µM. Regarding `CS(=O)(=O)NNS(=O)(=O)c1ccc(Cl)cc1`, the EC50 was over 126 µM and the IC50 was over 126 µM. As for `NC(=O)CN1CC(C2=C(O)CN(CC(N)=O)C2=O)=CC1=O`, the outcome was inactive.

For `Cc1ccc(NC(=O)SCCC(=O)O)cc1`, the result was inactive. In the case of `N#CC(C(=O)/C(=N/NC(=O)c1ccccc1O)C(C#N)c1ccc(Cl)cc1)c1ccc(Cl)cc1` (stereo unspecified), the EC50 was over 40.7 µM and the IC50 is 22.4 µM. Consider `N#CC(=C1CCN(CCCC(=O)c2ccc(F)cc2)CC1)c1ccccc1`, for which the EC50 is over 200 µM and the half-inhibitory concentration (IC50) was over 200 µM. With `Cc1nn(C(=O)c2ccc(Cl)cc2)c2c1C(c1cccc([N+](=O)[O-])c1)SC(N)=N2` (stereo unspecified), the EC50 was 126 µM and the IC50 was 138 µM.

Regarding `O=C(c1ccccc1)N1OCCCc2ccccc21`, the EC50 is over 200 µM and the IC50 was found to be 195 µM. Turning to `CC1(C)CCc2c(cc3c(c2O)CCC(C)(C)O3)O1`, the EC50 was over 200 µM and the IC50 was over 200 µM. On to `O=C1C2CCC(C2)C12CC1(c3ccccc3)C(=O)c3ccccc3N1O2` (stereo unspecified), for which the EC50 was over 28.8 µM and the IC50 was found to be 27.5 µM. The like results for `O=C(CC1(O)C(=O)Nc2ccc(Br)cc21)c1ccc2c(c1)OCO2` (stereo unspecified) were, in that order, over 200 µM and 178 µM. The like results for `CCOC(=O)N(CCCCCCNC(c1ccccc1)S(=O)(=O)O)c1ccccc1` (stereo unspecified) were, in that order, over 200 µM and 1.82 µM. In the case of `COc1ccc2c(ccc3[nH]c4c(C)cnc(NCCCN)c4c32)c1`, the EC50 was over 2 µM and the IC50 is 0.219 µM. Regarding `CCN(CC)c1ccc(/C=C2/C[N+](C)(C)C/C(=C/c3ccc(N(CC)CC)cc3)C2=O)cc1`, the EC50 was over 6.61 µM and the IC50 is 6.46 µM.

Turning to `O=C(CC1Sc2ccccc2NC1=O)Nc1ccccc1[N+](=O)[O-]` (stereo unspecified), the EC50 was over 724 µM and the IC50 is 70.8 µM. On the same counts, the results for `O=S1(=O)c2ccccc2S(=O)(=O)c2ccccc21` are 87.1 µM and over 200 µM. The like results for `C[C@H]1CC[P+](C)(c2ccccc2)C1` (stereo partly specified) were, in that order, over 912 µM and over 912 µM. The like results for `O=C1N(Cc2ccccc2)CC(O)CN1Cc1ccccc1` were, in that order, over 200 µM and 174 µM. Consider `Oc1ccc(O)c(Sc2nnc(CCCCCCCCc3nnc(Sc4cc(O)ccc4O)o3)o2)c1`, for which the outcome was inactive.

For the molecule `O=S(=O)(Cc1ccccc1)SCc1ccccc1`, the EC50 is over 79.4 µM and the concentration for half-maximal inhibition (IC50) is 6.31 µM. On the same counts, the results for `O=C1CC2(CCC(O)(c3ccc(Cl)cc3)C(C(=O)c3ccc(Cl)cc3)C2)C(=O)c2ccccc2N1` (stereo unspecified) are over 200 µM and 67.6 µM. On to `CN1CCN(C(=S)N(C(=O)c2ccco2)C2CCCCC2)CC1`, for which the EC50 is over 741 µM and the IC50 is 631 µM. On the same counts, the results for `C(=NCCSSCCN=Cc1ccccc1)c1ccccc1` are over 200 µM and 38.9 µM.

In the case of `CC(CCC(=O)O)[C@H]1CCC2[C@@H]3C(=O)C[C@@H]4CC(O)CC[C@]4(C)C3CC[C@@]21C` (stereo partly specified), the result was inactive.

Consider `NC(=O)CCCNC(=O)c1ccccc1SC(=O)CCCC[n+]1ccccc1`, for which the EC50 is 0.646 µM and the IC50 was 16.2 µM.

The term EC50 denotes the concentration needed to bring the measured effect to its halfway point. The IC50 is the concentration that gives 50% inhibition. Read a low IC50 as higher potency.
